# Results reported in patent US6528545B1, “Preparations comprising a fluorocarbon or highly fluorinated compound and a lipophilic/fluorophilic organic compound, and their uses” (priority 1991, dated 2003).
# Legend:
# [1] = cited from earlier work
# [2] = Facilitation of emulsification of perfluorooctyl bromide: fine particles versus number of microfluidizer passes; type: physicochemical; details: perfluorooctyl bromide/lecithin emulsion, fine particles d<0,12 μm (FIG. 9)
# Protocol: The compounds used in the methods of the invention facilitate the formation of the emulsion and lead to emulsions with fine particle size after a reduced number of passes or a reduced amount of energy. When the compound F8H8E of the invention is added to perfluorooctyl bromide/lecithin emulsion, 30% of fine particles are obtained after 10 passes. By comparison, the reference emulsion without the compounds of the invention requires 20 passes to obtain the same percentage of fine particles (FIG. 9).
# The protocol described in Example 1 was used. The average particle size was measured during microfluidization after 1, 2, 3, 4, 5, 7 and 10 passes. The percentage of fine particles (d<0,12 μm) and of coarse particle (d>0,6 μm) was evaluated.
# The same protocol as for reference emulsion E was used but for the addition of (F8H8E) as described in example 2.
# [3] = Particle size and ageing stability of perfluorooctyl bromide/lecithin emulsions (photosedimentation); type: physicochemical; details: 90% w/v emulsion of perfluorooctyl bromide
# Protocol: 32 g of egg-yolk lecithin and a mixture of salts whose composition is shown in detail in Table I was dispersed with Ultra Turrax under nitrogen (24000 t/min, 10 min) in 393 mL of injectable water. Perfluorooctyl bromide (PFOB, Perflubron®) (375 mL) was added slowly to this dispersion under nitrogen. The mixture was dispersed for 10 mn at 30-40° C. The coarse emulsion obtained was passed under nitrogen through a microfluidizer (M110F). After 10 passes under a pressure of 12000 psi in the chambers cooled to 35° C., the emulsion was recovered, filled in flasks then sterilized at 121° C. for 15 mn. The ageing was monitored at 5,25 and 40° C. (Table II and FIG. 1) and the average size of the particles measured by photosedimentation.
# 32 g of egg-yolk lecithin and a mixture of salts of the above composition (Table I) was dispersed under nitrogen using an Ultra Turrax T50 (24000 t/min, 10 min) in 379 mL of injectable water at 30-40° C. F6H8E (14.3 mL) was slowly added to this dispersion, which was stirred for 2 min. Perfluorooctyl bromide (375 mL) was then slowly added. The whole was emulsified for 10 min at 24000 t/min at 30-40° C. The coarse emulsion obtained was run under nitrogen through the microfluidizer and after 10 passes (12000 psi, 35° C.) the emulsion was filled in vials, sterilized and stored at 5,25 and 40° C. (Table II and FIG. 1). […]
# The same protocol described in the example of Reference A was used but for 16 g of egg-yolk lecithin. The aging was monitored at 40° C. (Table II and FIG. 4).
# The protocol described in example 1 was used with 385 mL of water, 8.38 mL of F8H8E, 16 g of lecithin and 375 mL of perfluorooctyl bromide. After microfluidization, the emulsion was sterilized and stored at 40° C. (Table II and FIG. 4). EXAMPLE 5 […]
# The same protocol described in example of reference A was used but for 8 g of egg-yolk lecithin. The aging was monitored at 40° C. (Table II and FIG. 6 ) and the average size of the particles was measured by photosedimentation.
# The protocol described in example 1 was used with 382 mL of water, 4,19 mL of F8H8E, 8 g of lecithin and 375 mL of perfluorooctyl bromide. After microfluidization the emulsion was sterilized and stored at 40° C. (Table II and FIG. 6).
SMILES,half retention time in liver (comparison value) [1] [days],number of passes to obtain 30% of fine particles [2] [passes],particle size ([3]; 0.1% w/v EYP and an equimolar amount of F8H8E),particle size ([3]; 0.2% w/v of EYP and an equimolar amount of F8H8E),particle size ([3]; 1% w/v of EYP and 0.7% w/v of F8H8E (FIG. 6)),particle size ([3]; 2% w/v of EYP and 1.4% w/v of F8H8E (FIG. 4))
FC(F)(F)C(F)(F)C(F)(F)N(C(F)(F)C(F)(F)C(F)(F)F)C(F)(F)C(F)(F)C(F)(F)F [perfluorotripropylamine],65,,,,,
"CCCCCCCCC=CC(F)(F)C(F)(F)C(F)(F)C(F)(F)C(F)(F)C(F)(F)C(F)(F)C(F)(F)F [Example F8H8E, C8F17CH═CHC8H17]",,10,about 2.75 μm,about 1.5 μm,about 0.38 μm,about 0.23 μm
